Measurements: patent US20200277246A1, “TREATMENT METHOD, COMPOUNDS, AND METHOD OF INCREASING TRPV2 ACTIVITY” (THE FEINSTEIN INSTITUTE FOR MEDICAL RESEARCH, priority 2015, published 2020)
Several values for one entry are separate records, joined by “and”; a condition that tells them apart may be missing. Identical values can stand only once.

Experiments:
p65 NFκB = p65 NFκB nuclear location by immunofluorescence in FLS; assay type: cell-based; details: 5, 10, 30, and 60 minutes, and 24 hours
[1] = tested on: C57BL/6 mice with KRN serum transfer-induced arthritis; test: KRN serum transfer induced arthritis (clinical scores and histology); assay type: in vivo, mouse
Method: Seven to eight week-old C57BL/6 male mice (Jackson Laboratories) received 200 μl of KRN arthritogenic serum (Ji et al, “Genetic Influences on the End-Stage Effector Phase of Arthritis,” J. Exp. Med. 194 (3):321-330 (2001), which is hereby incorporated by reference in its entirety) (KBN TCR transgenic mice were a kind gift from Christophe Benoist and have been intercrossed with NOD at the Feinstein Institute to generate KRN mice and the arthritogenic serum) intraperitoneal (IP) on day zero (D0) and day 2 (D2). After the onset of clear ankle arthritis (day 3; D3), mice were started on O1821 10 mg/Kg IP BID or control vehicle (DMSO in saline solution). Arthritis severity was scored according to the system reported by Jirholt et al., “Genetic Linkage Analysis of Collagen-Induced Arthritis in the Mouse,” Eur. J. Immunol. 28 (10):3321-3328 (1998), which is hereby incorporated by reference in its entirety, which includes a number of involved joints and a degree of inflammation (swelling/redness) in a scale of 0-12 per mouse per day.
[…] Histology slides were scored without knowledge of treatment and according to a comprehensive scoring system previously reported that includes parameters for synovial hyperplasia, inflammatory cell infiltration, and bone and cartilage erosions (Brenner et al., “The Non-MHC Quantitative Trait Locus Cia10 Contains a Major Arthritis Gene and Regulates Disease Severity, Pannus Formation and Joint Damage,” Arthritis Rheum. 52 (1):322-332 (2005), which is hereby incorporated by reference in its entirety).

MMP-3 = test: IL-1β-induced MMP-3 expression (qPCR) in RA FLS; assay type: cell-based, human; details: IL-1β 10 ng/ml 48 hours, 10 μM, n=6 RA
Method: (§1) The qPCR conditions used have been previously described (Laragione et al., “Cia5d Regulates a New Fibroblast-Like Synoviocyte Invasion-Associated Gene Expression Signature,” Arthritis Res. Ther. 10 (4):R92 (2008), which is hereby incorporated by reference in its entirety). Briefly, total RNA (200 ng) from each sample was reverse transcribed using Superscript III (Invitrogen). MMP-2 (forward-[…] (SEQ ID NO: 1); reverse-GGTATCCATCGCCATGCT (SEQ ID NO: 2) and MMP-3 (forward-CCAGGTGTGGAGTTCCTGA (SEQ ID NO: 3); reverse-[…] (SEQ ID NO: 4)) primers were designed based on the Universal ProbeLibrary (Roche, Indianapolis, Ind.). Reactions were prepared with Absolute Blue qPCR Mix (Thermo Fisher, Waltham, Mass.), and run in duplicate on a LightCycler 480 thermocycler (Roche) using Relative Quantitative Software (Roche). Ct (threshold cycle) values were adjusted for GAPDH in each sample (ΔCt). Fold differences were calculated with the 2^−ΔΔCt method (Livak et al., “Analysis of Relative Gene Expression Data Using Real-Time Quantitative PCR and the 2(-Delta Delta C(T)) Method,” Methods 25 (4):402-408 (2001), which is hereby incorporated by reference in its entirety).

[2] = tested on: FLS actin cytoskeleton, lamellipodia and Trpv2 distribution; test: Immunofluorescence and confocal microscopy of FLS; assay type: cell-based
Method: Immunofluorescence was performed as previously reported (Laragione et al., “mTOR Regulates the Invasive Properties of Synovial Fibroblasts in Rheumatoid Arthritis,” Mol. Med. 16 (9-10):352-358 (2010); Chan et al., “The GTPase Rac Regulates the Proliferation and Invasion of Fibroblast-Like Synoviocytes from Rheumatoid Arthritis Patients,” Mol. Med. 13 (5-6):297-304 (2007), which are hereby incorporated by reference in their entirety). Briefly, FLS were cultured on coverslips to 10-20% confluence, starved overnight and then pre-treated for 30 minutes, 60 minutes or 24 h with either DMSO or O1821, in the presence or absence of IL-1β 10-25 ng/ml or PDGF 50 ng/ml in complete media or in serum-free media. Cells were then fixed with 4% formaldehyde for 15 minutes at room temperature and permeabilized with PBS/Triton X-100 0.1% for 5 minutes. Non-specific binding was blocked with 5% nonfat milk. A rabbit anti-Trpv2 (Santa Cruz Biotechnology) was used as primary antibody, and a Alexa Fluor 488 (green) donkey anti-rabbit IgG (Invitrogen) used as secondary antibody. Alexa Fluor 594 (red) Phalloidin (Invitrogen) was used to stain the actin filament. The stained cells were mounted on a glass slide. A Zeiss Axiovert 200 M fluorescent microscope was used for visualization with the appropriate filters, with Zeiss Axioversion 4.7 software. Immunofluorescence microscopy was used for cell cytoskeleton scoring as previously described (Laragione et al., “CXCL10 and its Receptor CXCR3 Regulate Synovial Fibroblast Invasion in Rheumatoid Arthritis,” Arthritis Rheum. 63 (11):3274-3283 (2011), which is hereby incorporated by reference in its entirety). An Olympus FluoView 300 was used for confocal microscopy with a 600× magnification.

Trpv2 = details: cited from earlier work
MMP-2 = test: IL-1β-induced MMP-2 expression (qPCR) in RA FLS; assay type: cell-based, human; details: IL-1β 10 ng/ml 48 hours, 10 μM, n=6 RA
Method: as §1

[3] = tested on: cervix carcinoma cell line; test: Cancer cell invasion, cervix carcinoma; assay type: cell-based

For `C=C(C)[C@@H]1CCC(C)=C[C@H]1c1c(O)cc(C)cc1O` [Compound O1821], the “p65 NFκB activation (nuclear location)” value (p65 NFκB) was “did not change”, the Arthritis severity scores ([1]; 10 mg/Kg BID IP from day 3 to day 9) was “reductions in arthritis severity scores” and the “Arthritis severity index (ASI), mean±S.D.” value ([1]; 10 mg/Kg IP BID from day 3) was 38.8±6.3. For the same compound, the “Lower arthritis severity index (ASI) vs vehicle” value ([1]; 10 mg/Kg IP BID from day 3) was 30%, the “Histologic parameters (angiogenesis, inflammatory infiltration, pannus formation, loss of proteoglycan)” value ([1]; ankles at D10, blinded scoring) was “reduced several histologic parameters” and the Angiogenesis ([1]; histology, vs control vehicle) was “marked reduction”. The Synovial pannus formation ([1]; histology, vs control vehicle) was “reduced”, the “Synovial tissue inflammatory infiltration” value ([1]; histology, vs control vehicle) was “reduced” and the “Decrease of IL-1β-induced MMP-3 expression” value (MMP-3) was 92% and 90%. For the same compound, the “Distribution of Trpv2 in FLS” value ([2]; 10 μM) was “did not significantly change”, the “Actin cytoskeleton rearrangements, lamellipodia, cell morphology” value ([2]; 10 μM, 30 minutes to 24 hours, PDGF or IL-1β) was “no significant effect” and the “Actin cytoskeleton organization, number and distribution of lamellipodia” value ([2]; RA FLS, 1 μM, 30 minutes) was “did not affect”. The “Stimulation of Trpv2” value (Trpv2) was “stimulates”, the “Decrease of IL-1β-induced MMP-2 expression” value (MMP-2) was 45.6% and 50% and the Cell invasion [3] was “significantly reduce cell invasion”.
